In brackets after ≈: the same amount, converted by molar mass. Where two headings read alike, the source gives them in different places.
Tests used:
[1] = system: M. abscessus 1513; test: MIC/MBC by microbroth dilution (MH or 7H9 broth); format: cell-based, M. abscessus subsp. abscessus; settings: Mycobacteroides abscessus, 1513
[2] = system: M. abscessus 103; test: MIC/MBC by microbroth dilution (MH or 7H9 broth); format: cell-based, M. abscessus subsp. bolletii; settings: Mycobacteroides abscessus, 103
[3] = system: M. chelonae ATCC 35752; test: MIC, resazurin microtiter assay; format: cell-based; settings: for MIC: Mycobacteroides chelonae, ATCC35752, Mueller Hinton II, read-out: MIC M. chelonae ATCC 35752; for Selectivity index (TD50/MIC): TD50 in THP-1 cells
[4] = system: M. xenopi WT; test: MIC, resazurin microtiter assay; format: cell-based; settings: Mycobacterium xenopi, Mueller Hinton II; read-out: MIC M. xenopi WT
[5] = system: M. massiliense CRM 0019; test: MIC, resazurin microtiter assay; format: cell-based; settings: for MIC: Mycobacteroides abscessus, CRM0019, Mueller Hinton II, read-out: MIC M. massiliense CRM 0019; for Selectivity Index (TD50/MIC) M. Massiliense CRM0019: TD50 in THP-1 cells
[6] = system: M. abscessus ATCC 19977; test: MIC, resazurin microtiter assay; format: cell-based; settings: Mycobacteroides abscessus, ATCC19977; Mueller Hinton II; read-out: MIC M. abscessus ATCC 19977
[7] = system: M. intracellulare 1956; test: MIC, resazurin microtiter assay; format: cell-based; settings: Mueller Hinton II; read-out: MIC M. avium Intracellulare 1956
[8] = system: M. tuberculosis H37Rv mc^26206; test: microbe, parasite or virus in culture; format: cell-based; settings: for Selectivity Index (TD50/MIC) M. tb H37Rv: TD50 in THP-1 cells
[9] = system: M. massiliense CIP 108297; test: MIC, resazurin microtiter assay; format: cell-based; settings: Mycobacteroides abscessus, CIP108297, Mueller Hinton II; read-out: MIC M. massiliense CIP 108297
[10] = system: THP-1 cells; test: Cytotoxicity assay, THP-1 cell viability (CellTiter-Glo); format: cell-based, human; settings: 3 days
Method: The cytotoxicity of compounds was determined by measuring THP-1 cell viability after 3 days in the presence of test compounds. Compounds were prepared as 10-point serial dilutions in DMSO. The highest concentration of compound tested was 50 μM where compounds were soluble in DMSO at 10 mM. THP-1 cells were cultured in complete RPMI and differentiated into macrophage-like cells using 80 nM PMA overnight at 37° C., 5% CO2. Cells were inoculated into assay plates and cultured for 24 h before compound dilutions were added to a final DMSO concentration of 0.5%. Each run included staurosporine as a control. Assay plates were incubated for 3 days at 37° C., 5% CO2, growth was measured using the CellTiter-Glo® Luminescent Cell Viability Assay (Promega) which uses ATP as an indicator of cell viability. Relative luminescent units (RLU) were measured using a Biotek Synergy 4 plate reader. The dose response curve was fitted using the Levenberg-Marquardt algorithm.

[11] = system: P. aeruginosa PAO-1; test: MIC, resazurin microtiter assay; format: cell-based, Pseudomonas aeruginosa; settings: Mueller Hinton II; for MIC: Pseudomonas aeruginosa, PAO1, read-out: MIC P. aeruginosa PAO-1
[12] = system: S. aureus ATCC25923; test: MIC, resazurin microtiter assay; format: cell-based; settings: Staphylococcus aureus, ATCC25923; Mueller Hinton II; read-out: MIC S. aureus ATCC25923
[13] = system: M. bolletii ATCC 14472; test: MIC, resazurin microtiter assay; format: cell-based; settings: for MIC: Mycobacteroides abscessus, ATCC14472, Mueller Hinton II, read-out: MIC M. bolletii ATCC 14472; for Selectivity Index (TD50/MIC) M. bolletii: TD50 in THP-1 cells
[14] = system: M. avium 104; test: MIC, resazurin microtiter assay; format: cell-based; settings: Mycobacterium avium, 104; Mueller Hinton II; read-out: MIC M. avium 104
[15] = system: M. massiliense strain 1513; test: Metabolic labeling and mycolic acid analysis; settings: 4x and 10x MIC, 16 hr, [1,2-14C]acetate labeling, TLC
Method: Cultures of M. massiliense 1513 grown to mid log-phase in Mueller-Hinton II broth were incubated with different concentrations of inhibitors for 16 hr at 37° C. with shaking. 0.5 μCi/mL [1,2-^14C]acetic acid (specific activity, 52 Ci/mol, PerkinElmer Inc.) was added at the same time as the inhibitors. Total lipids and cell wall-bound mycolic acid methyl esters were prepared from treated and untreated cells and analyzed by TLC as described in Grzegorzewicz et al, Nature Chemical Biology, 2012, 8:334+341.

[16] = system: M. smegmatis mc^2155; test: MIC, resazurin microtiter assay; format: cell-based; settings: Mycolicibacterium smegmatis, MC^2155, 7H9-ADC-0.05% Tween 80; read-out: MIC M. smeg. mc^2155
[17] = system: M. abscessus DCI #21; test: MIC, resazurin microtiter assay; format: cell-based; settings: for MIC: Mycobacteroides abscessus, Mueller Hinton II, read-out: MIC M. abscessus DCI #21; for Selectivity Index (TD50/MIC) M. abscessus DCI #21: TD50 in THP-1 cells
[18] = system: mycobacteria; test: organism not typed; format: cell-based; settings: lowest concentration reducing CFU by 90% relative to the inoculum; strain not stated; read-out: MBC90
[19] = read-out: MIC M. abscessus 1513, 7H9 Broth
[20] = read-out: MIC M. abscessus 1513, MH Broth
[21] = read-out: MIC M. abscessus 103, 7H9 Broth
[22] = read-out: MIC M. abscessus 103, MH Broth

Question: What does the source list for `Cc1cc(C)c2cc(C(=O)N[C@@H]3C[C@@H]4C[C@H]([C@H]3C)C4(C)C)[nH]c2c1` [Compound 31, N-((1R,2R,3R,5S)-2,6,6-trimethylbicyclo[3.1.1]heptan-3-yl)-4,6-dimethyl-1H-indole-2-carboxamide]?
Answer: MIC [1, 19]: > 64 µg/mL; MIC [1, 20]: > 64 µg/mL; MIC [2, 21]: > 64 µg/mL; MIC [2, 22]: 16 µg/mL (≈ 49.3 µM); MIC [3]: 0.125 µg/mL (≈ 0.385 µM); Selectivity index (TD50/MIC) [3]: >130; MIC [4]: 0.25 to 1 µg/mL (≈ 0.77 to 3.08 µM); MIC [5]: 0.125 µg/mL (≈ 0.385 µM); Selectivity Index (TD50/MIC) M. Massiliense CRM0019 [5]: >130; MIC [6]: 0.125 µg/mL (≈ 0.385 µM); MIC [7]: 2 µg/mL (≈ 6.16 µM); Selectivity Index (TD50/MIC) M. tb H37Rv [8]: >830; MIC [9]: 0.125 µg/mL (≈ 0.385 µM); TD50 [10]: >16.2 µg/mL; MIC P. aeruginosa PAO-1 [11]: inactive; MIC [11]: > 160 µg/mL; MIC [12]: > 160 µg/mL; MIC [13]: 0.125 µg/mL (≈ 0.385 µM); Selectivity Index (TD50/MIC) M. bolletii [13]: >130; MIC [14]: 2 µg/mL (≈ 6.16 µM); TMM build-up and mycolic acid transfer onto arabinogalactan and TDM [15]: concentration-dependent build-up of TMM; MIC [16]: 1.25 to 2.5 µg/mL (≈ 3.85 to 7.7 µM); MIC [17]: 0.125 µg/mL (≈ 0.385 µM); Selectivity Index (TD50/MIC) M. abscessus DCI #21 [17]: >130

Question: Which MIC [1, 19] does the source give for `C[C@@H]1[C@H]2C[C@@H](C[C@H]1NC(=O)c1cc3ccccc3[nH]1)C2(C)C` [Compound 16, N-((1R,2R,3R,5S)-2,6,6-trimethylbicyclo[3.1.1]heptan-3-yl)-1H-indole-2-carboxamide] here?
Answer: Its MIC is > 64 µg/mL.

Question: And the MIC [1, 20]?
Answer: The MIC was > 64 µg/mL.

Question: What about the MIC [2, 21] of the same compound?
Answer: The MIC was > 64 µg/mL.

Question: And the MIC [2, 22]?
Answer: The MIC was 16 µg/mL (≈ 54 µM).

Question: What about the MBC [18] of the same compound?
Answer: The MBC was 0.06 µg/mL (≈ 0.202 µM).

Question: What about the MIC [3] of the same compound?
Answer: Its MIC is < 0.06 µg/mL.

Question: And the “Selectivity index (TD50/MIC)” value [3]?
Answer: Its value is >188.

Question: And the MIC [4]?
Answer: The MIC was 0.5 to 1 µg/mL (≈ 1.69 to 3.37 µM).

Question: What about the MIC [5] of the same compound?
Answer: The MIC was 0.06 µg/mL (≈ 0.202 µM).

Question: And the “Selectivity Index (TD50/MIC) M. Massiliense CRM0019” value [5]?
Answer: Its value is 188.

Question: And the MIC [6]?
Answer: Its MIC is 0.12 µg/mL (≈ 0.405 µM).

Question: And the MIC [7]?
Answer: Its MIC is 8 µg/mL (≈ 27 µM).

Question: And the MIC ([8]; Mycobacterium tuberculosis, H37RV, read-out: MIC M. tb H37 Rv (mc2-6206))?
Answer: Its MIC is 0.05 µg/mL (≈ 0.169 µM).

Question: And the “Selectivity Index (TD50/MIC) M. tb H37Rv” value [8]?
Answer: Its value is 226.

Question: And the MIC [9]?
Answer: The MIC was 0.06 µg/mL (≈ 0.202 µM).

Question: And the TD50 [10]?
Answer: Its TD50 is 11.3 µg/mL.

Question: And the “MIC P. aeruginosa PAO-1” value [11]?
Answer: Its value is “inactive”.

Question: What about the MIC [11] of the same compound?
Answer: The MIC was > 160 µg/mL.

Question: What about the MIC [12] of the same compound?
Answer: The MIC was 40 µg/mL (≈ 135 µM).

Question: What about the MIC [13] of the same compound?
Answer: Its MIC is 0.12 µg/mL (≈ 0.405 µM).

Question: What about the “Selectivity Index (TD50/MIC) M. bolletii” value [13] of the same compound?
Answer: Its value is 92.

Question: And the MIC [14]?
Answer: Its MIC is 8 µg/mL (≈ 27 µM).

Question: And the “TMM build-up and mycolic acid transfer onto arabinogalactan and TDM” value [15]?
Answer: The value was “concentration-dependent build-up of TMM”.

Question: And the MIC [16]?
Answer: The MIC was 0.78 µg/mL (≈ 2.63 µM).

Question: And the MIC [17]?
Answer: Its MIC is 0.5 µg/mL (≈ 1.69 µM).

Question: What about the “Selectivity Index (TD50/MIC) M. abscessus DCI #21” value [17] of the same compound?
Answer: Its value is 22.6.

Source: patent US10383848B2, “Indole-based therapeutics” (Creighton University, priority 2016, dated 2019)
